Source: patent US20010009912A1, “NEW DERIVATIVES OF PYRIDIL PIPERAZINE OR PYRIDAZINYL PIPERAZYL, PROCESS FOR PRODUCTION THEREOF AND MEDICAMENTS CONTAINING THESE COMPOUNDS” (priority 1995, published 2001)

Molecular target: isolated activated GpIIb/IIIa receptor (Homo sapiens, UniProt P05106+P08514)
Experiment: GpIIb/IIIa-Fibrinogen-ELISA (inhibition of fibrinogen binding to coated receptor)
Settings: inhibition of fibrinogen-GpIIb/IIIa interaction, O.D. at 405 nm
Experimental: Microtitre plates are coated overnight with 2 μg/ml isolated activated GpIIb/IIIa receptor. After removing the unbound receptor by several washing steps, the surface of the plates is blocked with 1% casein and washed again. The test substance is added in the required concentrations and the plates are incubated for 10 minutes while shaking in a linear shaker. The natural ligand of the gpIIb/IIIa receptor, fibrinogen, is added. After 1 hour of incubation the unbound fibrinogen is removed by several washing steps and bound fibrinogen is detected by a peroxidase-conjugated anti-fibrinogen monoclonal antibody by measuring the O.D. at 405 nm in an ELISA-reader. Inhibition of fibrinogen-GpIIb/IIIa interaction results in a low O.D. An IC50 is calculated in relation to a concentration-effect curve.
The GpIIb/IIIa-Fibrinogen-ELISA is a modification of the assays described in the following literature:
Nachman, R. L. & Leung, L. L. K. (1982): Complex formation of platelet membrane glycoproteins IIb and IIIa with fibrinogen. J. Clin. Invest. 69:263-269. Wright, P. S. et al. (1993): An echistatin C-terminal peptide activated GpIIbIIIa binding to fibrinogen, fibronectin, vitronectin and collagen type I and type IV. Biochem. J. 293:263-276.

Sequence of isolated activated GpIIb/IIIa receptor (P08514 32-887 limits assumed): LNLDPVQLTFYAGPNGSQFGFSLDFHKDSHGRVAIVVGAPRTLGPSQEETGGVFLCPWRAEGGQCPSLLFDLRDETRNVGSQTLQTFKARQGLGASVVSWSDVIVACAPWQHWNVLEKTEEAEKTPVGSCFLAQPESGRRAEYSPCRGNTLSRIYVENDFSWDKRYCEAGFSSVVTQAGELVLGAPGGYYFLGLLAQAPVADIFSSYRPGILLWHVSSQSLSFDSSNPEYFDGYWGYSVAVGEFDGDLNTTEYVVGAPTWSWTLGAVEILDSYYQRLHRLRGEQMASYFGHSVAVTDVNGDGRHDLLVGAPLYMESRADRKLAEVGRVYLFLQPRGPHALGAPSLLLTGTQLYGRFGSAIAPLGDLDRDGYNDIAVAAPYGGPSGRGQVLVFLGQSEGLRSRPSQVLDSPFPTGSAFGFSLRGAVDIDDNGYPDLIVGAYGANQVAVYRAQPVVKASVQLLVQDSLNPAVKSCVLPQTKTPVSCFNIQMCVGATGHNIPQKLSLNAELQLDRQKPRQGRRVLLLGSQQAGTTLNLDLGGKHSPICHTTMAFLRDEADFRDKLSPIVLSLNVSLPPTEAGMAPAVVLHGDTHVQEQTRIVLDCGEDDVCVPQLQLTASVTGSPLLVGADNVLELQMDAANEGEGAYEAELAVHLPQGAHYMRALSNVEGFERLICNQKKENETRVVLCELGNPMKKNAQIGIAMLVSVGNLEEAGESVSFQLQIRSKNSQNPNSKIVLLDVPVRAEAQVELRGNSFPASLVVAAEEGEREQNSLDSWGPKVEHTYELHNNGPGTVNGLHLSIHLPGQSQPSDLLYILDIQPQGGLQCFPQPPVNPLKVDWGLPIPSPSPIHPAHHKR
Sequence of isolated activated GpIIb/IIIa receptor (P08514 891-1039 partner limits assumed): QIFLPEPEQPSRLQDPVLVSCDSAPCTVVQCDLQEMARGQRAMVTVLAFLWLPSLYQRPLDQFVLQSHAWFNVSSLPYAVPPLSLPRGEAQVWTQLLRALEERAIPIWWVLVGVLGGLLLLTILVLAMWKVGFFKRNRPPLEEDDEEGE
Sequence of isolated activated GpIIb/IIIa receptor (P05106 27-788): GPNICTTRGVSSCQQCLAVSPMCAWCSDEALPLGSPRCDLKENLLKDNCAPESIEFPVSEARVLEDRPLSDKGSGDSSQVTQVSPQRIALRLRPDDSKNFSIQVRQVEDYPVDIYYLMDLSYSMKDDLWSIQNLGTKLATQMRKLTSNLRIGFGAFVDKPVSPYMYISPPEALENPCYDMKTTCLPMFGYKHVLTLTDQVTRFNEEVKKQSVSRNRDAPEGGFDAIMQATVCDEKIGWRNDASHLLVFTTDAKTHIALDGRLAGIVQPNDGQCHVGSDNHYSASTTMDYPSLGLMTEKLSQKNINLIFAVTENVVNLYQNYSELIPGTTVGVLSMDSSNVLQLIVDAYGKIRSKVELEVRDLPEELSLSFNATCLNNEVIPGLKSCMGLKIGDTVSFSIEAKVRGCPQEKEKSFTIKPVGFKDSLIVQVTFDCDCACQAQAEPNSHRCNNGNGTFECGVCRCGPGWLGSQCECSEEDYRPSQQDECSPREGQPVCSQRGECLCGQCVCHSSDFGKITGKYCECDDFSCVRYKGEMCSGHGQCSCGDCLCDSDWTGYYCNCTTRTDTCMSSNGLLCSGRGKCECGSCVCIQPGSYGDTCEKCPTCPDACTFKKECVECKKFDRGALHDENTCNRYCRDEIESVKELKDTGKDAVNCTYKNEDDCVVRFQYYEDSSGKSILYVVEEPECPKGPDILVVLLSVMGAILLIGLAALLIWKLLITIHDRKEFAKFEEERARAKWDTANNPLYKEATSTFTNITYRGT

IC50 | Compound
2.5 µM | O=C(O)CC1(O)CCC(N2CCN(c3ccncc3)CC2)CC1 (stereo not drawn) [cis-1-hydroxy-4-[4-(4-pyridyl)-piperazin-1-yl] -acetic acid]
0.1 µM | O=C(O)CC1CCC(CCN2CCN(c3ccncc3)CC2)CC1 (centres unmarked) [Example 4, {4-[2-(4-Pyridin-4-yl-piperazin-1-yl)-ethyl]-cyclohexyl} -acetic acid]
